According to ChEMBL document CHEMBL1130505, “2-Aryloxycarbonylthiophene-3-sulfonamides: Highly potent and etA selective endothelin receptor antagonists” (Bioorg Med Chem Lett, 1997):

How the values were obtained:
[1] = target: T1, Endothelin-1 receptor (Homo sapiens, UniProt P25101); test: In vitro binding affinity in a radioligand binding experiment by competition with [125I]-labeled endothelin-1 for ETA receptor
T1 sequence (P25101 whole entry): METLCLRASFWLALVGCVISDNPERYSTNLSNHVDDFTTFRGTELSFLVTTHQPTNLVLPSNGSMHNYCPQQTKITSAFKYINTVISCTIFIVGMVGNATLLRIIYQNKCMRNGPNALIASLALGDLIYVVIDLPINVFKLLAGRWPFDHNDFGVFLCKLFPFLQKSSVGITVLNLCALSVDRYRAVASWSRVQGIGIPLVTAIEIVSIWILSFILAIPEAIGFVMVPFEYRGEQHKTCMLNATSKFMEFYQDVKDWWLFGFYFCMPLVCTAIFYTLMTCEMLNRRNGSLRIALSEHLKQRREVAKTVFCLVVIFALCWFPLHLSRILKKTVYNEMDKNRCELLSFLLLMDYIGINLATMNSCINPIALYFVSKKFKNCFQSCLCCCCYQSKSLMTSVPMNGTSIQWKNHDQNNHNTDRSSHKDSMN

[2] = target: T2, Endothelin receptor type B (Homo sapiens) (UniProt P24530); test: Percent inhibition against ETB receptor binding at a concentration of 100 uM
T2 sequence (whole entry): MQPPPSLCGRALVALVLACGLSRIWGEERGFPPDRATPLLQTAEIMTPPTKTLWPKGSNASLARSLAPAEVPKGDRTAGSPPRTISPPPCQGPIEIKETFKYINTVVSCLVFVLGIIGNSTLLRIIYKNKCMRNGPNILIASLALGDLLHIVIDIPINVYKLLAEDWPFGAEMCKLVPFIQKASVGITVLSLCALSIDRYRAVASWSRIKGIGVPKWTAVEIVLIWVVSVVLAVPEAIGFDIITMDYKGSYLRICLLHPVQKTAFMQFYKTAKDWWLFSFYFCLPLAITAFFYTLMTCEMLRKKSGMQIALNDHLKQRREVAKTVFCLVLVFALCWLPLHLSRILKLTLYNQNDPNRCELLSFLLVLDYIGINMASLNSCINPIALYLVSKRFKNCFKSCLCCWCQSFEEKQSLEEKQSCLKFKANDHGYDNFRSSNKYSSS

[3] = target: T3, Endothelin receptor type B (Homo sapiens, UniProt P24530); test: In vitro binding affinity in a radioligand binding experiment by competition with [125I]-labeled endothelin-1 for ETB receptor
T3 sequence (P24530 whole entry): T2 sequence (whole entry)

Cc1noc(NS(=O)(=O)c2ccsc2C(=O)Nc2ccccc2)c1Cl
IC50 [1]: 0.148 µM
inhibition [2]: < 50%
IC50 [3]: > 100 µM

Cc1noc(NS(=O)(=O)c2ccsc2C(=O)Oc2ccccc2)c1Cl
inhibition [2]: < 50%
IC50 [3]: > 100 µM

Cc1ccc(OC(=O)c2sccc2S(=O)(=O)Nc2onc(C)c2C)c(C)c1
IC50 [1]: 0.27 µM
inhibition [2]: < 50%
IC50 [3]: > 100 µM

Cc1noc(NS(=O)(=O)c2ccsc2C(=O)Oc2ccc3c(c2)OCO3)c1C
IC50 [1]: 6.14 µM
IC50 [3]: 48.7 µM

COC(=O)c1sccc1S(=O)(=O)Nc1onc(C)c1Cl
IC50 [1]: 1.09 µM
inhibition [2]: < 50%
IC50 [3]: > 100 µM

Cc1noc(NS(=O)(=O)c2ccsc2C(=O)Nc2ccccc2)c1C
IC50 [1]: 0.55 µM
inhibition [2]: < 50%
IC50 [3]: > 100 µM

Cc1noc(NS(=O)(=O)c2ccsc2C(=O)Oc2ccccc2)c1C
IC50 [1]: 4.12 µM
inhibition [2]: < 50%
IC50 [3]: > 100 µM

Cc1ccccc1OC(=O)c1sccc1S(=O)(=O)Nc1onc(C)c1Br
inhibition [2]: < 50%
IC50 [3]: > 100 µM

Cc1noc(NS(=O)(=O)c2ccsc2C(=O)Oc2ccccc2)c1Br
inhibition [2]: < 50%
IC50 [3]: > 100 µM

Cc1ccc(OC(=O)c2sccc2S(=O)(=O)Nc2onc(C)c2C)cc1
IC50 [1]: 2.52 µM
inhibition [2]: < 50%
IC50 [3]: > 100 µM

Cc1noc(NS(=O)(=O)c2ccsc2C(=O)Oc2ccc3c(c2)OCO3)c1Cl
IC50 [1]: 0.0083 µM
IC50 [3]: 7.94 µM

Cc1noc(NS(=O)(=O)c2ccsc2C(=O)O)c1Cl
IC50 [1]: 1.06 µM
inhibition [2]: < 50%
IC50 [3]: > 100 µM

COC(=O)c1sccc1S(=O)(=O)Nc1onc(C)c1Br
IC50 [1]: 0.74 µM
inhibition [2]: < 50%
IC50 [3]: > 100 µM

Cc1ccc(OC(=O)c2sccc2S(=O)(=O)Nc2onc(C)c2Br)cc1
IC50 [1]: 0.0093 µM
IC50 [3]: 9.21 µM

Cc1noc(NS(=O)(=O)c2ccsc2C(=O)O)c1C
IC50 [1]: 6.06 µM
inhibition [2]: < 50%
IC50 [3]: > 100 µM

Cc1noc(NS(=O)(=O)c2ccsc2C(=O)Oc2ccc3c(c2)OCO3)c1Br
IC50 [1]: 0.0089 µM
IC50 [3]: 5.74 µM

Cc1ccc(OC(=O)c2sccc2S(=O)(=O)Nc2onc(C)c2Cl)cc1
inhibition [2]: < 50%
IC50 [3]: > 100 µM

Cc1cccc(OC(=O)c2sccc2S(=O)(=O)Nc2onc(C)c2Br)c1
inhibition [2]: < 50%
IC50 [3]: > 100 µM

COC(=O)c1sccc1S(=O)(=O)Nc1onc(C)c1C
IC50 [1]: 3.47 µM
inhibition [2]: < 50%
IC50 [3]: > 100 µM

Cc1noc(NS(=O)(=O)c2ccsc2C(=O)O)c1Br
IC50 [1]: 10.2 µM
inhibition [2]: < 50%
IC50 [3]: > 100 µM
